Results as given in patent US20210379085A1, “HALOGENATED SALICYLANILIDES FOR TREATING THE SYMPTOMS OF DERMATITIS” (Union Therapeutics A/S, priority 2018, published 2021).

How the values were obtained:
[1] = Systemic exposure to niclosamide (serum) after topical application in healthy volunteers; format: in vivo; settings: human, after topical niclosamide formulations twice daily 7 days and final dose Day 8
Protocol: The skin biopsies were taken using sterile single use disposable biopsy punches (BP40F, Kai Europe GmbH, Solingen, Germany). For the 6 non-treated healthy volunteers biopsies were taken on Day 1. 10 mL of blood was collected at day 1 for the method validation group to determine niclosamide concentration in the blood.

[2] = test system: skin barrier and inflammation biomarkers in lesional skin biopsies; assay: Microarray (Affymetrix U133A Plus 2) biomarker gene expression in lesional skin biopsies (Example 3); format: in vivo, human
Protocol: Patients received topical applications of a niclosamide 2% composition and vehicle once daily for 3 weeks, followed by a 1-week follow up period. Topical niclosamide 2% and vehicle was applied on two separate target lesions of atopic dermatitis (lesions of at least 3×3-cm that are at least 2 cm apart, excluding the face, scalp, genitals, hands, and feet). The application areas (5×5-cm) were randomized (1:1) to once daily application of niclosamide 2% or vehicle at 5 mg/cm^2 without occlusion 6 days per week. Patients came to the study site for all study product application for a total of 3 weeks.
Skin barrier and inflammation biomarker levels were determined from lesional skin biopsies from application areas.
The skin biopsy samples were analysed by immunohistochemistry (IHC), and by gene expression studies by RT-PCR using TaqMan Low Density Array (TLDA), and by microarray using Affymetrix U133A Plus 2. The immunohistochemistry (IHC) was used to analyse cell biomarkers. The methodologies as disclosed by Guttman-Yassky et al, “Major differences in inflammatory dendritic cells and their products distinguish atopic dermatitis from psoriasis”, The Journal of Allergy and Clinical Immunology, vol. 119, issue 5, pages 1210-1217, 2007, were followed except for that U133A Plus 2-set Gene Chip probe arrays was used instead of U95A-set Gene Chip probe arrays.
Experimental design: The hybridization strategy was in concordance with experimental design principles, by for example keeping all samples from the same patient in the same date, and always include samples from every treatment arm/group.
Quality Control and Pre-processing: Quality control of microarray chips were carried out using standard QC metrics and R package microarray Quality Control. Expression measures were obtained using GCRMA algorithm (Wu & Irizarry, 2004). Several visual and modelling techniques were used to elucidate if batch effect existed. Principal Component analysis plots were used to detect if any evident batch effect existed. If such batch effects were found, they were adjusted using Combat, an empirical Bayes method for adjusting data for batch effects that is robust to outliers in small sample sizes (Johnson, Li, & Rabinovic, 2007). The implementation of Combat by package sva was used.
Probe-sets with at least 5% samples with expression larger than 3 (in log 2-scale) were kept for further analysis. Expression values were modelled using mixed-effect models with fixed factors Visit and Treatment Area and a random effect for each patient. Fold changes for the comparisons of interest were estimated and hypothesis testing was conducted on such comparisons using contrasts under the general framework for linear models in limma package. The inter-replicate correlation was computed by Duplicate Correlation function and the linear model was estimated by ImFit. P-values from the moderated (paired) t-test were adjusted for multiple hypotheses using the Benjamini-Hochberg procedure, which controls for FDR.

[3] = Day 22, topical administration of 2% niclosamide, p<0.05
[4] = fold change, Day 22, vehicle-treated vs niclosamide-treated lesion, topical niclosamide 2% once daily 3 weeks, AD lesional skin
[5] = fold change, Day 22 vs baseline, topical niclosamide 2% once daily 3 weeks, AD lesional skin

In the case of `O=C(Nc1ccc([N+](=O)[O-])cc1Cl)c1cc(Cl)ccc1O` [Niclosamide, niclosamide], the concentration at 8 day [1] is reported as 0.24 ng/mL, the “CXCL1 downregulation, 2% niclosamide compared to vehicle (microarray values)” value [2, 3] is reported as −2.10 and the “PI3 downregulation, 2% niclosamide compared to vehicle (microarray values)” value [2, 3] is reported as −1.87. The “S100A9 downregulation, 2% niclosamide compared to vehicle (microarray values)” value [2, 3] was −1.88, the “S100A12 downregulation, 2% niclosamide compared to vehicle (microarray values)” value [2, 3] was −2.30 and the “ACOT2 expression, Vehicle vs. Niclosamide (Microarray)” value [2, 4] was −1.35. For the same compound, the “ACOX2 expression, Vehicle vs. Niclosamide (Microarray)” value [2, 4] was −1.40, the “CCL2 expression, Vehicle vs. Niclosamide (Microarray)” value [2, 4] was 1.56 and the “CCL13 expression, Vehicle vs. Niclosamide (Microarray)” value [2, 4] was 1.32. The “CCL18 expression, Vehicle vs. Niclosamide (Microarray)” value [2, 4] was 1.66, the “CCL20 expression, Vehicle vs. Niclosamide (Microarray)” value [2, 4] was 2.00 and the “CCL23 expression, Vehicle vs. Niclosamide (Microarray)” value [2, 4] was 1.63. For the same compound, the “CCL26 expression, Vehicle vs. Niclosamide (Microarray)” value [2, 4] was 1.69, the “CCR1 expression, Vehicle vs. Niclosamide (Microarray)” value [2, 4] was 1.55 and the “CCR6 expression, Vehicle vs. Niclosamide (Microarray)” value [2, 4] was 1.31. The “CXCL1 expression, Vehicle vs. Niclosamide (Microarray)” value [2, 4] was 2.10, the “DGAT2 expression, Vehicle vs. Niclosamide (Microarray)” value [2, 4] was −1.19 and the “ELOVL3 expression, Vehicle vs. Niclosamide (Microarray)” value [2, 4] was −1.66. For the same compound, the “FA2H expression, Vehicle vs. Niclosamide (Microarray)” value [2, 4] was −1.57, the “FAR2 expression, Vehicle vs. Niclosamide (Microarray)” value [2, 4] was −1.47 and the “FAXDC2 expression, Vehicle vs. Niclosamide (Microarray)” value [2, 4] was −1.29. For the same compound, the “IFNGR2 expression, Vehicle vs. Niclosamide (Microarray)” value [2, 4] was 1.10, the “IL1F10 expression, Vehicle vs. Niclosamide (Microarray)” value [2, 4] was −1.79 and the “IL4R expression, Vehicle vs. Niclosamide (Microarray)” value [2, 4] was 1.29. For the same compound, the “IL26 expression, Vehicle vs. Niclosamide (Microarray)” value [2, 4] was 1.78, the “KRT79 expression, Vehicle vs. Niclosamide (Microarray)” value [2, 4] was −2.00 and the “LCN2 expression, Vehicle vs. Niclosamide (Microarray)” value [2, 4] was 1.69. For the same compound, the “PI 3 expression, Vehicle vs. Niclosamide (Microarray)” value [2, 4] was 1.87, the “PNPLA3 expression, Vehicle vs. Niclosamide (Microarray)” value [2, 4] was −1.79 and the “PPARG expression, Vehicle vs. Niclosamide (Microarray)” value [2, 4] was −1.55. For the same compound, the “S100A9 expression, Vehicle vs. Niclosamide (Microarray)” value [2, 4] was 1.88, the “S100A12 expression, Vehicle vs. Niclosamide (Microarray)” value [2, 4] was 2.30 and the “SPTLC3 expression, Vehicle vs. Niclosamide (Microarray)” value [2, 4] was −1.30. The “STAT1 expression, Vehicle vs. Niclosamide (Microarray)” value [2, 4] was 1.13, the “STAT3 expression, Vehicle vs. Niclosamide (Microarray)” value [2, 4] was 1.16 and the “TNFSF4 expression, Vehicle vs. Niclosamide (Microarray)” value [2, 4] was 1.35. For the same compound, the “ACER1 expression, Niclosamide vs Predose (Microarray)” value [2, 5] was 1.94, the “ACOX2 expression, Niclosamide vs Predose (Microarray)” value [2, 5] was 1.40 and the “ACSL1 expression, Niclosamide vs Predose (Microarray)” value [2, 5] was 1.21. The “ANXA6 expression, Niclosamide vs Predose (Microarray)” value [2, 5] was −1.24, the “ANXA9 expression, Niclosamide vs Predose (Microarray)” value [2, 5] was 1.56 and the “CCL2 expression, Niclosamide vs Predose (Microarray)” value [2, 5] was −1.77. The “CCL13 expression, Niclosamide vs Predose (Microarray)” value [2, 5] was −1.40, the “CCL18 expression, Niclosamide vs Predose (Microarray)” value [2, 5] was −1.70 and the “CCL19 expression, Niclosamide vs Predose (Microarray)” value [2, 5] was −1.56. For the same compound, the “CCL22 expression, Niclosamide vs Predose (Microarray)” value [2, 5] was −1.83, the “CCR1 expression, Niclosamide vs Predose (Microarray)” value [2, 5] was −1.90 and the “CCR2 expression, Niclosamide vs Predose (Microarray)” value [2, 5] was −1.37. For the same compound, the “CCR5 expression, Niclosamide vs Predose (Microarray)” value [2, 5] was −1.40, the “CCR6 expression, Niclosamide vs Predose (Microarray)” value [2, 5] was −1.33 and the “CCR7 expression, Niclosamide vs Predose (Microarray)” value [2, 5] was −1.51. For the same compound, the “CD2 expression, Niclosamide vs Predose (Microarray)” value [2, 5] was −1.56, the “CD3D expression, Niclosamide vs Predose (Microarray)” value [2, 5] was −1.63 and the “CD3G expression, Niclosamide vs Predose (Microarray)” value [2, 5] was −1.62. The “CD28 expression, Niclosamide vs Predose (Microarray)” value [2, 5] was −1.72, the “CD86 expression, Niclosamide vs Predose (Microarray)” value [2, 5] was −1.60 and the “CDSN expression, Niclosamide vs Predose (Microarray)” value [2, 5] was 1.14. For the same compound, the “CERS3 expression, Niclosamide vs Predose (Microarray)” value [2, 5] was 1.13, the “CLDN1 expression, Niclosamide vs Predose (Microarray)” value [2, 5] was 1.17 and the “CLDN23 expression, Niclosamide vs Predose (Microarray)” value [2, 5] was 1.42. The “CLN8 expression, Niclosamide vs Predose (Microarray)” value [2, 5] was 1.15, the “CXCL1 expression, Niclosamide vs Predose (Microarray)” value [2, 5] was −2.83 and the “CXCL2 expression, Niclosamide vs Predose (Microarray)” value [2, 5] was −1.81. The “DGAT2 expression, Niclosamide vs Predose (Microarray)” value [2, 5] was 1.33, the “DHCR7 expression, Niclosamide vs Predose (Microarray)” value [2, 5] was 1.12 and the “ELOVL3 expression, Niclosamide vs Predose (Microarray)” value [2, 5] was 1.81. For the same compound, the “EREG expression, Niclosamide vs Predose (Microarray)” value [2, 5] was 1.19, the “FA2H expression, Niclosamide vs Predose (Microarray)” value [2, 5] was 1.50 and the “FAR2 expression, Niclosamide vs Predose (Microarray)” value [2, 5] was 1.48. For the same compound, the “FAXDC2 expression, Niclosamide vs Predose (Microarray)” value [2, 5] was 1.46, the “FLG expression, Niclosamide vs Predose (Microarray)” value [2, 5] was 1.17 and the “IFNGR2 expression, Niclosamide vs Predose (Microarray)” value [2, 5] was −1.13. For the same compound, the “IL1F10 expression, Niclosamide vs Predose (Microarray)” value [2, 5] was 1.98, the “IL2RA expression, Niclosamide vs Predose (Microarray)” value [2, 5] was −1.27 and the “IL4R expression, Niclosamide vs Predose (Microarray)” value [2, 5] was −1.80. The “IL6R expression, Niclosamide vs Predose (Microarray)” value [2, 5] was −1.25, the “IL7R expression, Niclosamide vs Predose (Microarray)” value [2, 5] was −1.58 and the “IL12RB2 expression, Niclosamide vs Predose (Microarray)” value [2, 5] was −1.21. For the same compound, the “IL24 expression, Niclosamide vs Predose (Microarray)” value [2, 5] was −2.19, the “IL37 expression, Niclosamide vs Predose (Microarray)” value [2, 5] was 1.69 and the “IRF1 expression, Niclosamide vs Predose (Microarray)” value [2, 5] was −1.37. For the same compound, the “KRT23 expression, Niclosamide vs Predose (Microarray)” value [2, 5] was 1.26, the “KRT77 expression, Niclosamide vs Predose (Microarray)” value [2, 5] was 1.43 and the “KRT79 expression, Niclosamide vs Predose (Microarray)” value [2, 5] was 1.91. The “LCN2 expression, Niclosamide vs Predose (Microarray)” value [2, 5] was −1.62, the “MMP12 expression, Niclosamide vs Predose (Microarray)” value [2, 5] was −2.81 and the “PI 3 expression, Niclosamide vs Predose (Microarray)” value [2, 5] was −3.13. The “PNPLA3 expression, Niclosamide vs Predose (Microarray)” value [2, 5] was 1.91, the “PPL expression, Niclosamide vs Predose (Microarray)” value [2, 5] was 1.06 and the “S100A7 expression, Niclosamide vs Predose (Microarray)” value [2, 5] was −1.17. The “S100A8 expression, Niclosamide vs Predose (Microarray)” value [2, 5] was −1.45, the “S100A9 expression, Niclosamide vs Predose (Microarray)” value [2, 5] was −2.81 and the “S100A12 expression, Niclosamide vs Predose (Microarray)” value [2, 5] was −3.62. For the same compound, the “S100P expression, Niclosamide vs Predose (Microarray)” value [2, 5] was −1.35, the “SCEL expression, Niclosamide vs Predose (Microarray)” value [2, 5] was 1.43 and the “SERPINB1 expression, Niclosamide vs Predose (Microarray)” value [2, 5] was −1.29. The “SERPINB4 expression, Niclosamide vs Predose (Microarray)” value [2, 5] was −1.54, the “SPTLC3 expression, Niclosamide vs Predose (Microarray)” value [2, 5] was 1.44 and the “STAT3 expression, Niclosamide vs Predose (Microarray)” value [2, 5] was −1.13. The “TJP3 expression, Niclosamide vs Predose (Microarray)” value [2, 5] was 1.51 and the “TNFSF4 expression, Niclosamide vs Predose (Microarray)” value [2, 5] was −1.64.
